From patent US9908863B2, “Piperidinylcarbazoles” (Merck Patent GmbH, priority 2013, dated 2018)

These compounds were tested on P. falciparum strain NF54 (assay: P. falciparum growth assay ([3H] hypoxanthine incorporation)). Conditions: Plasmodium falciparum; P. falciparum NF54 strain, 72 h incubation, [3H]hypoxanthine incorporation; read-out: IC50 NF54.
Format: cell-based
Protocol: • Cultivation of P. falciparum:
P. falciparum strain NF54 was obtained from the Research and Reference Reagent
Resource Center (MR4) (Manassas, Va.). The two strains were maintained in vitro by a modification of the method of Trager and Jensen. Cultures were maintained in A positive (A+) human erythrocytes suspended at 5% hematocrit in complete medium. 5 g albumax II (Gibco-Invitrogen, Cat No#11021037), 2.5 mg gentamicin (Sigma Aldrich), 25 mM HEPES (Invitrogen), 5 mg hypoxanthine (Sigma), and 1 L of RPMI 1640 (Invitrogen, Cat No#11875085). Cultures were grown in 100 mm petri-dishes (BD Falcon) at a volume of 15 mL and were kept in a standard gas environment of 4% CO2 and 3% 02 at temperature 37° C. in a tri-gas incubator (Cat#3131, Thermo Scientific Forma Series II Water Jacketed). Parasite growth and morphology were observed daily using thin smears at 100× (oil immersion) magnification following staining with Geimsa stain. • P. falciparum growth assay:
The protocol assesses the compound efficacy against the growth of P. falciparum in-vitro.
Parasite growth was detected in assay by the traditional [3H] hypoxanthine incorporation assay as previously described by Desjardins and colleagues (Antimicrob. Agents Chemother., 16(6), 710, 1979). To perform the [3H] hypoxanthine incorporation assay, the new antimalarial agents were serially diluted 1:1 into hypoxanthine-free complete medium to a final volume of 100 μL (final antimalarial agent concentration range, 10,000 nM to 4.8 nM may change in special case) in 96 well sterile cell culture plates. […] All cultures used in the study are albumax II adopted. The microtiter plates were incubated in chamber in a standard gas environment at 37° C. for 72 h. After 48 h of incubation and prior to addition of 50 μL (0.5 μCi/well) 3H-Hypoxanthine (specific activity, 20 Ci/mmol, Conc. 1.0 mCi/ml; American Radiolabeled Chemicals, Inc., St. Louis, Mo.), culture growth was assessed by making the smears that ensures the culture has grown in % p and assay plate is further incubated for 24 h. Following the incubation period, the plates were harvested with a FilterMate cell harvester (Perkin Elmer) onto unifilter-96 GF/B plates, washed with distilled water to remove excess radiochemical and plates were kept for drying 37° C. overnight or 60° C. for 1 h. 50 μL of Microscint scintillation cocktail (Microscint-High Efficiency LSC-Cocktail; Perkin Elmer) added in the unifilter-96 GF/B plates and kept for 15-20 min. The plates were counted in a Top Count NXT microplate scintillation and luminescence counter (Perkin Elmer). The mean values for [3H]hypoxanthine incorporation in parasitized control and non-parasitized control erythrocytes were calculated.
Assay data were analyzed using Graph pad prism ver.5 software. A variable sigmoid dose response curve is plotted keeping log concentrations at X-axis and % inhibition at Y-axis.

| IC50 | SMILES |
| --- | --- |
| 0.724 µM | O[C@@H]1CN(CCC(F)(F)F)CC[C@H]1n1c2ccc(Cl)cc2c2cc(Cl)cnc21 [Compound 58, (3R,4R)-4-(3,6-dichloro-9H-pyrido[2,3-b]indol-9-yl)-1-(3,3,3-trifluoropropyl)piperidin-3-ol] |
| 0.0798 µM | O[C@@H]1CCN(Cc2ccccc2)C[C@H]1n1c2ccc(F)cc2c2cc(F)ccc21 (single isomer, unassigned) [Compound 42] |
| 0.0222 µM | O[C@@H]1CNCC[C@H]1n1c2ccc(C(F)(F)F)cc2c2cc(C(F)(F)F)ccc21 (racemic) [Compound 68, trans-4-(3,6-bis(trifluoromethyl)-9H-carbazol-9-yl)piperidin-3-ol] |
| 1.3 µM | O[C@@H]1CCNC[C@H]1n1c2ccc(C(F)(F)F)cc2c2cc(C(F)(F)F)ccc21 (racemic) [Compound 59, trans-3-(3,6-bis(trifluoromethyl)-9H-carbazol-9-yl)piperidin-4-ol] |
| 0.0205 µM | O[C@H]1CNCC[C@@H]1n1c2ccc(C(F)(F)F)cc2c2cc(C(F)(F)F)ccc21 [Compound 61, (3S,4S)-4-(3,6-bis(trifluoromethyl)-9H-carbazol-9-yl)piperidin-3-ol] |
| 0.0934 µM | O[C@H]1CNCC[C@@H]1n1c2ccc(Cl)cc2c2cc(Cl)cnc21 (single isomer, unassigned) [Compound 19] |
| 1.69 µM | O[C@@H]1CCNC[C@H]1n1c2ccc(Cl)cc2c2cc(Cl)ccc21 (single isomer, unassigned) [Compound 66] |
| 0.0336 µM | O[C@@H]1CCN(CCCC(F)(F)F)C[C@H]1n1c2ccc(F)cc2c2cc(F)ccc21 [Compound 49, (3R,4R)-3-(3,6-difluoro-9H-carbazol-9-yl)-1-(4,4,4-trifluorobutyl)piperidin-4-ol] |
| 0.233 µM | O[C@@H]1CCN(Cc2ccccc2)C[C@H]1n1c2ccc(F)cc2c2cc(F)ccc21 (relative stereo) [Compound 63, trans-1-benzyl-3-(3,6-difluoro-9H-carbazol-9-yl)piperidin-4-ol] |
| 1.33 µM | CC(C)(C)OC(=O)N1CC[C@@H](n2c3ccc(F)cc3c3cc(F)ccc32)[C@H](O)C1 (racemic) [Compound 46, trans-tert-butyl 4-(3,6-difluoro-9H-carbazol-9-yl)-3-hydroxypiperidine-1-carboxylate] |
| 0.29 µM | O[C@@H]1CCN(CC2CC2)C[C@H]1n1c2ccc(F)cc2c2cc(F)ccc21 [Compound 50, (3R,4R)-1-(cyclopropylmethyl)-3-(3,6-difluoro-9H-carbazol-9-yl)piperidin-4-ol] |
| 0.0736 µM | O[C@@H]1CCN(CC2(C(F)(F)F)CC2)C[C@H]1n1c2ccc(F)cc2c2cc(F)ccc21 [Compound 53, (3R,4R)-3-(3,6-difluoro-9H-carbazol-9-yl)-1-((1-(trifluoromethyl)cyclopropyl)methyl)piperidin-4-ol] |
| 0.555 µM | CC(C)(C)CN1CC[C@@H](O)[C@H](n2c3ccc(F)cc3c3cc(F)ccc32)C1 [Compound 51, (3R,4R)-3-(3,6-difluoro-9H-carbazol-9-yl)-1-neopentylpiperidin-4-ol] |
| 0.0282 µM | O[C@@H]1CCN(CCC(F)(F)F)C[C@H]1n1c2ccc(Cl)cc2c2cc(Cl)ccc21 [Compound 54, (3R,4R)-3-(3,6-dichloro-9H-carbazol-9-yl)-1-(3,3,3-trifluoropropyl)piperidin-4-ol] |
| 0.0205 µM | O[C@@H]1CNCC[C@H]1n1c2ccc(C(F)(F)F)cc2c2cc(C(F)(F)F)ccc21 [Compound 60, (3R,4R)-4-(3,6-bis(trifluoromethyl)-9H-carbazol-9-yl)piperidin-3-ol] |
| 0.096 µM | O[C@@H]1CCN(CCC(F)(F)F)C[C@H]1n1c2ccc(F)cc2c2cc(F)ccc21 [Compound 45, (3R,4R)-3-(3,6-difluoro-9H-carbazol-9-yl)-1-(3,3,3-trifluoropropyl)piperidin-4-ol] |
| 2.23 µM | O[C@@H]1CCN(CCC(F)(F)F)C[C@H]1n1c2ccc(Cl)cc2c2cc(Cl)cnc21 [Compound 57, (3R,4R)-3-(3,6-dichloro-9H-pyrido[2,3-b]-indol-9-yl)-1-(3,3,3-trifluoropropyl)piperidin-4-ol] |
| 0.124 µM | O[C@@H]1CNCC[C@H]1n1c2ccc(Cl)cc2c2cc(Cl)cnc21 (single isomer, unassigned) [Compound 20] |
| 1.26 µM | CC(C)(C)OC(=O)N1CC[C@H](O)[C@@H](n2c3ccc(F)cc3c3cc(F)ccc32)C1 (single isomer, unassigned) [Compound 48] |
| 0.169 µM | O[C@@H]1CCN(CCc2ccccc2)C[C@H]1n1c2ccc(F)cc2c2cc(F)ccc21 [Compound 52, (3R,4R)-3-(3,6-difluoro-9H-carbazol-9-yl)-1-phenethylpiperidin-4-ol] |
| 0.792 µM | CC(C)(C)OC(=O)N1CC[C@@H](O)[C@H](n2c3ccc(F)cc3c3cc(F)ccc32)C1 (racemic) [Compound 44, trans-tert-butyl 3-(3,6-difluoro-9H-carbazol-9-yl)-4-hydroxypiperidine-1-carboxylate] |
| 3.6 µM | O[C@@H]1CCNC[C@H]1n1c2ccc(Cl)cc2c2cc(Cl)cnc21 (single isomer, unassigned) [Compound 55] |
| 0.576 µM | CC(C)(C)OC(=O)N1CC[C@@H](O)[C@H](n2c3ccc(F)cc3c3cc(F)ccc32)C1 (single isomer, unassigned) [Compound 47] |
| 0.91 µM | O[C@H]1CCN(Cc2ccccc2)C[C@@H]1n1c2ccc(F)cc2c2cc(F)ccc21 (single isomer, unassigned) [Compound 43] |

| SMILES | IC50 |
| --- | --- |
| O[C@@H]1CNCC[C@H]1n1c2ccc(F)cc2c2cc(F)ccc21 (racemic) [Compound 62] | 0.263 µM |
| O[C@@H]1CN(Cc2ccccc2)CC[C@H]1n1c2ccc(F)cc2c2cc(F)ccc21 (relative stereo) [Compound 41, trans-1-benzyl-4-(3,6-difluoro-9H-carbazol-9-yl)piperidin-3-ol] | 0.28 µM |
